Laboratory results as given in patent US10898419B2, “Compounds for promoting hair growth and/or inhibiting or delaying hair loss in humans, and compositions for such uses” (GIULIANI S.P.A., priority 2016, dated 2021).

Tests used:
[1] = target: T1, olfactory receptor OR2AT4 (Homo sapiens, UniProt A6NND4); conditions: according to Busse et al.; cited from earlier work
T1 sequence (A6NND4 1-320): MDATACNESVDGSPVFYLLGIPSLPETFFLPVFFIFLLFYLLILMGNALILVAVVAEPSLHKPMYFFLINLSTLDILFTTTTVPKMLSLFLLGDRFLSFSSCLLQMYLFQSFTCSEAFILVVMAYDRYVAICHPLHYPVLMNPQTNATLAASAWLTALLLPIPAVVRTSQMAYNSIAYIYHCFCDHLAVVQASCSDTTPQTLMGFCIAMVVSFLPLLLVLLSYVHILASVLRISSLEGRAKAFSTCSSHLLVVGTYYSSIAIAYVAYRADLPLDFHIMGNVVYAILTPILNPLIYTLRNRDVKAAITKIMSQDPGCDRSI

[2] = system: cultured human keratinocytes; conditions: Busse et al.; cited from earlier work
TGFβ2 = TGFβ2 immunofluorescence in ORS keratinocytes of cultured HFs; type: cell-based, human; conditions: 500 μM (Phenirat 1:1), 6 day-treatment, proximal ORS keratinocytes, compared to vehicle
Protocol: In addition, TGFβ2, a potent catagen inducer, was investigated with reference to the same above compounds.
OCT embedded samples were sectioned (6 μm thickness) with a cryostat. Sections were fixed in 4% paraformaldehyde, pre-incubated with 10% of goat serum (for OR2AT4) or 5% goat serum+0.3% Tritton X-100 (for cleaved-caspase 3) and incubated with the corresponding primary antibody at 4° C. overnight ( 1/100 for OR2AT4 and 1/400 for cleaved-caspase 3). Secondary antibody incubation was performed at RT for 45 min. Counterstaining with DAPI (1 μg/mL) was performed to visualize nuclei. For TGFb2, samples were fixed in acetone and the endogenous peroxidases were blocked with 3% of H2O2. This step was followed by an avidin-biotin blocking step and a preincubation with TNB buffer (Tris HCl+NaCl+Casein). […] Images were taken using a Keyence fluorescence microscope (Osaka, Japan) maintaining a constant set exposure time throughout imaging for further analysis. […]
Staining intensity was evaluated in well-defined reference areas by quantitative (immuno-)histomorphometry, as previously described (Bertolini et al., 2014) using NIH IMAGE software (NIH, Bethesda, Md., USA). […]
TGFβ2 expression was quantified using Image J. Mean±SEM, n=14-22 HFs from 2 patients, Kruskal-Wallis and Dunn's multiple comparisons test as post hoc test, *p<0.05, ***p<0.001, and Mann-Whitney test, ns. […]

[3] = system: hair matrix keratinocytes; test: Ki67/TUNEL staining of hair matrix keratinocytes in HF organ culture; type: cell-based, human; conditions: 500 μM (Phenirat 1:1), 6 day-culture, compared to vehicle
Protocol: (§1) HFs were treated with either the vehicle, sandal pentanol, Phenirat or a mixture of sandal pentanol and Phenirat. To analyse modifications of the hair cycle, Ki67/TUNEL were performed and used to evaluate hair cycle score and hair matrix keratinocytes proliferation and apoptosis.
OCT embedded samples were sectioned (6 μm thickness) with a cryostat. Sections were fixed in 4% paraformaldehyde, pre-incubated with 10% of goat serum (for OR2AT4) or 5% goat serum+0.3% Tritton X-100 (for cleaved-caspase 3) and incubated with the corresponding primary antibody at 4° C. overnight ( 1/100 for OR2AT4 and 1/400 for cleaved-caspase 3). Secondary antibody incubation was performed at RT for 45 min. Counterstaining with DAPI (1 μg/mL) was performed to visualize nuclei. For TGFb2, samples were fixed in acetone and the endogenous peroxidases were blocked with 3% of H2O2. This step was followed by an avidin-biotin blocking step and a preincubation with TNB buffer (Tris HCl+NaCl+Casein). The corresponding primary antibody was incubated at 4° C. overnight ( 1/1000 for TGFb2). Secondary antibody incubation was performed at RT for 45 min before using the Tyramide signal amplification kit (Perkin Elmer). Counterstaining with DAPI was performed to visualize nuclei. To stain apoptotic and proliferating cells, we have used the apoptag kit (Merck Milipore) following manufacture's protocol followed by Ki67 staining. The primary antibody was incubated overnight (Ki67, 1/20) after the TdT-enzyme step. The secondary antibody was incubated for 45 min at RT after the fluorescent-labelled anti-Digoxigenin step of the apoptag kit. Counterstaining with DAPI was performed to visualize nuclei. Negative controls were performed by omitting the primary antibody. Images were taken using a Keyence fluorescence microscope (Osaka, Japan) maintaining a constant set exposure time throughout imaging for further analysis.
After 24 h of incubation, WEM medium was replaced and HFs were treated with the corresponding substances for 6 days following experimental conditions. HFs were treated either with vehicle (0.1% DMSO), sandal pentanol (500 μM), Phenirat (in a ratio 1:1 to the agonist), or a mixture sandal pentanol+Phenirat.
Staining intensity was evaluated in well-defined reference areas by quantitative (immuno-)histomorphometry, as previously described (Bertolini et al., 2014) using NIH IMAGE software (NIH, Bethesda, Md., USA).
With reference to the evidence of FIG. 4, to investigate whether sandal pentanol influences hair matrix keratinocytes proliferation and apoptosis, Ki67/TUNEL staining was performed. Proliferating (diagram of FIG. 4A) and apoptotic (diagram of FIG. 4B) hair matrix keratinocytes were counted in the hair matrix of treated and vehicle HFs. […]

[4] = system: microdissected human scalp HFs; test: Hair cycle score / staging (catagen induction) in HF organ culture; type: cell-based; conditions: 500 μM (Phenirat 1:1), 6 days of culture, compared to vehicle
Protocol: as §1
Human scalp samples were obtained after face-lifting procedure and used at the same day for microdissecting human anagen VI scalp HFs. Microdissected human scalp HFs were cultured at 37° C. with 5% CO2 in a minimal media of William's E media (Gibco, Life technologies) supplemented with 2 mM of L-glutamine (Gibco), 10 ng/ml hydrocortisone (Sigma-Aldrich), 10 μg/ml insulin (Sigma-Aldrich) and 1% penicillin/streptomycin mix (Gibco) (WEM) as previously described (Philpott, 1990; Kloepper, 2010; Langan et al, 2015). […]
(§2) Phenirat was added 30 min before sandal pentanol. Hair shaft elongation was measured daily using an inverted binocular microscope (Philpott et al., 1990) and culture medium was replaced every second day. […]
To investigate the specificity of the effect on hair growth of OR2AT4 stimulation by sandal pentanol, microdissected HFs were cultured with sandal pentanol and/or Phenirat, and hair cycle performed staging analysis as previously described (Kloepper, 2010; Langan et al, 2015). Hair cycle score was measured both in treated and vehicle HFs after 6 days of culture. […]

[5] = system: microdissected human scalp HFs; test: Hair shaft elongation in HF organ culture; type: cell-based; conditions: 500 μM, cultured microdissected HFs from two donors, compared to vehicle
Protocol: (§3) Then, in order to assess whether stimulation of OR2AT4 can influence human hair growth, microdissected HFs were treated with sandal pentanol at a concentration of 500 μM, as the agonist and a hair shaft elongation measurement was performed (see Philpott et al., 1990). In addition, a kinase assay was conducted in order to identify which signalling pathways are involved in the specific stimulation of OR2AT4 by sandal pentanol.
Human scalp samples were obtained after face-lifting procedure and used at the same day for microdissecting human anagen VI scalp HFs. […]
as §2
To check whether the activation of OR2AT4 can influence the hair cycle of human HF, microdissected human HFs were specifically stimulated with the potential agonist, sandal pentanol. The effect of the sandal pentanol treatment was evaluated by measuring hair shaft elongation compared to vehicle.
HF elongation was measured in cultured microdissected HFs. […]

keratinocytes = conditions: long-term stimulation, in vitro wound scratch assay, Busse et al.; cited from earlier work
[6] = system: apoptotic signalling pathway; test: Kinase assay of signalling pathways after OR2AT4 stimulation; type: cell-based, human; conditions: specific stimulation of OR2AT4 in microdissected HFs
Protocol: as §3

[7] = system: human skin organ cultures; conditions: Busse et al.; cited from earlier work

effect on apoptotic signalling pathway [6]	Structure (SMILES)	activity at olfactory receptor OR2AT4 [1]	Ca2+ signals [2]	TGFβ2 expression at the protein level (TGFβ2)	hair matrix keratinocyte apoptosis (TUNEL) [3]	hair matrix keratinocyte proliferation (Ki67) [3]	catagen induction / anagen prolongation (hair cycle score) [4]	hair shaft elongation [5]	cell proliferation, migration and regeneration of keratinocyte monolayers (keratinocytes)	epidermal wound healing [7]
–	CC1=CC[C@@H](CC[C@@H](C)CO)C1(C)C (stereo in doubt) [brahmanol, 2-Methyl-4-(2,2,3-trimethyl-3-cyclopenten-1-yl)butanol]	agonists	induce Ca^2+ signals	–	–	–	–	–	–	–
–	CC(C)C(=O)OCCOc1ccccc1 [Phenirat, phenoxyethyl isobutyrate, reference compound]	specific antagonist	–	no change	this effect is not obtained	did not change	did not prolong anagen	–	–	–
Inhibits Apoptotic Signalling Pathway	CC1=CCC(CCC(C)C(C)O)C1(C)C (centres unmarked) [sandal pentanol, 3-methyl-5-(2,2,3-trimethylcyclopent-3-en-1-yl)pentan-2-ol]	agonists	induce Ca^2+ signals	significant decrease	significantly decreased	did not change	delayed catagen induction	stimulates hair shaft elongation	positively affects	enhances epidermal wound healing
